Assay results from patent US20090137661A1, “PLANT DERIVED COMPOUNDS AND COMPOUND FORMULAE CONTAINING THE SAME FOR THE TREATMENT OF CERVICAL CANCER” (priority 2007, published 2009).
Converted amounts (≈) assume the structure as drawn. Where two headings read alike, the source gives them in different places.

Legend:
HeLa cells = test: Cytotoxicity assay (MTT assay) on HeLa cells; conditions: for IC50: Homo sapiens, HeLa; for cytotoxicity to HeLa cells compared with Doxorubicin HCl: under the corresponding conditions
Description: HeLa cell line was obtained from Dr. S. S. Shen (Biomedical Engineering Research Laboratories of Industrial Technology Research Institute of Taiwan). HeLa cells are adherent cells and were propagated and maintained in Dulbecco's modified Eagle's medium (DMEM) supplemented with 10% fetal bovine serum (FBS), […] sodium bicarbonate (NaHCO3), 1 mM sodium pyruvate, and 0.1 mM non-essential amino acid.
(§1) Cytotoxicity Assay (MTT Assay)
The cytotoxicity of the compounds set forth herein to HeLa cells and HUVEC cells were determined by the MTT assay. The HUVEC cells were used to understand the cytotoxicity of said compounds to normal human cells. Besides, doxorubicin HCl was used as a comparative example so as to investigate the efficacy of the compounds according to the embodiments of the present invention.
Briefly, the MTT assay comprises the following steps: • (A) Cells were seeded in 96-well plates 3 hours before treatment, wherein the density of HeLa cell is 1×10^4 cells per well and the density of HUVEC cell is 2×10^4 cells per well; • (B) Cells were then treated with various concentrations of tested samples and incubated for a predetermined period (24, 48, and 72 hours); • (C) After the predetermined periods expired, the tested samples were removed and 100 μl MTT reagent (1 mg/ml) was added to each well; • (D) The plates were incubated at 37° C. with 5% of CO2 for 5 hours; • (E) The MTT reagent was removed and 100 μl DMSO was added to each well; • (F) The optical density (O.D.) of each well was determined by ELISA reader at a wavelength of 560 nm.
Each experiment was repeated for 3 times and the result shown in the tables herein were the mean value of the 3 repetitions. The O.D. of the vehicle control and experimental groups were recorded. The cell survival rate of each sample was calculated as follows:
Cell survival rate(%)=O.D.control/O.D.experimental*100%
Then, the cell survival rate was plotted against the compound concentration and the IC50 value of each compound was calculated by the GraFit data analysis software (Erithacus Software Ltd.).

HUVEC cells = test: Cytotoxicity assay (MTT assay) on HUVEC cells; assay type: cell-based, human; conditions: for IC50: Homo sapiens, HUVEC cells
From the text: Human umbilical vein endothelial cells (HUVEC) were purchased from Food Industry Research and Development Institute in Hsin-Chu City, Taiwan. HUVEC cells were propagated and maintained in Medium 199 supplemented with 10% FBS, Heparin, and […].
as §1

[1] = 24 h, read-out: IC50 at 24 hours, HeLa
[2] = 48 h, read-out: IC50 at 48 hours, HeLa
[3] = 72 h, read-out: IC50 at 72 hours, HeLa
[4] = 24 hours, read-out: IC50 at 24 hours, HUVEC
[5] = 48 hours, read-out: IC50 at 48 hours, HUVEC
[6] = 72 hours, read-out: IC50 at 72 hours, HUVEC

Row | SMILES | HeLa Cell Survival Rate (HeLa cells; 0.1 μg/ml, 24 hrs) [%] | HeLa Cell Survival Rate (HeLa cells; 0.1 μg/ml, 48 hrs) [%] | HeLa Cell Survival Rate (HeLa cells; 0.1 μg/ml, 72 hrs) [%] | HeLa Cell Survival Rate (HeLa cells; 1 μg/ml, 24 hrs) [%] | HeLa Cell Survival Rate (HeLa cells; 1 μg/ml, 48 hrs) [%] | HeLa Cell Survival Rate (HeLa cells; 1 μg/ml, 72 hrs) [%] | HeLa Cell Survival Rate (HeLa cells; 100 μg/ml, 24 hrs) [%] | HeLa Cell Survival Rate (HeLa cells; 100 μg/ml, 48 hrs) [%] | HeLa Cell Survival Rate (HeLa cells; 100 μg/ml, 72 hrs) [%] | HUVEC/HeLa ratio of IC50 (HeLa cells; 24 hours) | HUVEC/HeLa ratio of IC50 (HeLa cells; 48 hours) | HUVEC/HeLa ratio of IC50 (HeLa cells; 72 hours) | IC50 (HeLa cells; [1]) [µg/mL] | IC50 (HeLa cells; [2]) [µg/mL] | IC50 (HeLa cells; [3]) [µg/mL] | cytotoxicity to HeLa cells compared with Doxorubicin HCl (HeLa cells) | HUVEC Cell Survival Rate (HUVEC cells; 0.1 μg/ml, 24 hrs) [%] | IC50 (HUVEC cells; [4]) [µg/mL] | IC50 (HUVEC cells; [5]) [µg/mL] | IC50 (HUVEC cells; [6]) [µg/mL] | further results
1 | CC(C)[C@]12O[C@H]1[C@@H]1O[C@]13[C@]1(O[C@H]1C[C@H]1C4=C(CC[C@@]13C)C(=O)OC4)[C@@H]2O [Compound B, triptolide] | 33 | 14 | 9 | 26 | 12 | 9 | 20 | 13 | 9 | >13.9 | 20.9 | 29.3 | 0.0721 (≈ 0.2 µM) | 0.00724 (≈ 0.0201 µM) | 0.00287 (≈ 0.00796 µM) | higher cytotoxicity | 59 | > 1 | 0.151 (≈ 0.419 µM) | 0.084 (≈ 0.233 µM) | HeLa Cell Survival Rate (HeLa cells; 0.001 μg/ml, 24 hrs): 98%; HeLa Cell Survival Rate (HeLa cells; 0.001 μg/ml, 48 hrs): 94%; HeLa Cell Survival Rate (HeLa cells; 0.001 μg/ml, 72 hrs): 81%; HeLa Cell Survival Rate (HeLa cells; 0.01 μg/ml, 24 hrs): 89%; HeLa Cell Survival Rate (HeLa cells; 0.01 μg/ml, 48 hrs): 37%; HeLa Cell Survival Rate (HeLa cells; 0.01 μg/ml, 72 hrs): 15%; HUVEC Cell Survival Rate (HUVEC cells; 0.001 μg/ml, 24 hrs): 93%; HUVEC Cell Survival Rate (HUVEC cells; 0.001 μg/ml, 48 hrs): 102%; HUVEC Cell Survival Rate (HUVEC cells; 0.001 μg/ml, 72 hrs): 108%; HUVEC Cell Survival Rate (HUVEC cells; 0.01 μg/ml, 24 hrs): 94%; HUVEC Cell Survival Rate (HUVEC cells; 0.01 μg/ml, 48 hrs): 111%; HUVEC Cell Survival Rate (HUVEC cells; 0.01 μg/ml, 72 hrs): 114%; HUVEC Cell Survival Rate (HUVEC cells; 0.1 μg/ml, 48 hrs): 36%; HUVEC Cell Survival Rate (HUVEC cells; 0.1 μg/ml, 72 hrs): 23%; HUVEC Cell Survival Rate (HUVEC cells; 1 μg/ml, 24 hrs): 71%; HUVEC Cell Survival Rate (HUVEC cells; 1 μg/ml, 48 hrs): 35%; HUVEC Cell Survival Rate (HUVEC cells; 1 μg/ml, 72 hrs): 23%
2 | O=c1c(O)c(-c2ccc(O)c(O)c2)oc2cc(O)cc(O)c12 [Compound E, quercetin] | 93 |  |  |  |  | 91 |  | 32 | 12 |  |  |  | > 100 | 20 (≈ 66.2 µM) | 6 (≈ 19.9 µM) |  |  | > 100 | 104 (≈ 344 µM) | 36 (≈ 119 µM) | HeLa Cell Survival Rate (HeLa cells; 10 μg/ml, 24 hrs): 83%; HeLa Cell Survival Rate (HeLa cells; 10 μg/ml, 48 hrs): 51%; HeLa Cell Survival Rate (HeLa cells; 10 μg/ml, 72 hrs): 33%; HUVEC Cell Survival Rate (HUVEC cells; 10 μg/ml, 48 hrs): 87%; HUVEC Cell Survival Rate (HUVEC cells; 10 μg/ml, 72 hrs): 80%; HUVEC Cell Survival Rate (HUVEC cells; 100 μg/ml, 24 hrs): 120%; HUVEC Cell Survival Rate (HUVEC cells; 100 μg/ml, 48 hrs): 51%; HUVEC Cell Survival Rate (HUVEC cells; 100 μg/ml, 72 hrs): 26%
3 | Cc1cc2c(C(C)C)c(O)c(O)c(C=O)c2c(O)c1-c1c(C)cc2c(C(C)C)c(O)c(O)c(C=O)c2c1O [Compound F, gossypol-acetic acid] | 101 | 103 | 98 | 97 | 105 | 98 | 17 | 13 | 10 | 1.0 | 2.8 | 2.9 | 29 (≈ 55.9 µM) | 12 (≈ 23.1 µM) | 8 (≈ 15.4 µM) | higher cytotoxicity | 93 | 30 (≈ 57.9 µM) | 33 (≈ 63.6 µM) | 23 (≈ 44.4 µM) | HeLa Cell Survival Rate (HeLa cells; 10 μg/ml, 24 hrs): 80%; HeLa Cell Survival Rate (HeLa cells; 10 μg/ml, 48 hrs): 52%; HeLa Cell Survival Rate (HeLa cells; 10 μg/ml, 72 hrs): 40%; HUVEC Cell Survival Rate (HUVEC cells; 0.1 μg/ml, 48 hrs): 104%; HUVEC Cell Survival Rate (HUVEC cells; 0.1 μg/ml, 72 hrs): 103%; HUVEC Cell Survival Rate (HUVEC cells; 1 μg/ml, 24 hrs): 88%; HUVEC Cell Survival Rate (HUVEC cells; 1 μg/ml, 48 hrs): 104%; HUVEC Cell Survival Rate (HUVEC cells; 1 μg/ml, 72 hrs): 98%; HUVEC Cell Survival Rate (HUVEC cells; 10 μg/ml, 24 hrs): 80%; HUVEC Cell Survival Rate (HUVEC cells; 10 μg/ml, 48 hrs): 85%; HUVEC Cell Survival Rate (HUVEC cells; 10 μg/ml, 72 hrs): 71%; HUVEC Cell Survival Rate (HUVEC cells; 100 μg/ml, 24 hrs): 20%; HUVEC Cell Survival Rate (HUVEC cells; 100 μg/ml, 48 hrs): 17%; HUVEC Cell Survival Rate (HUVEC cells; 100 μg/ml, 72 hrs): 17%
